The source of these data is patent EP2065382A1, “CGRP antagonists” (Boehringer Ingelheim Pharma GmbH & Co. KG, priority 2007, dated 2009).

The structures appear in SMILES notation.

A word on the Ki: it is a dissociation constant, usually derived from enzyme kinetics or from competition with a known ligand.

T1 sequence (Q16602 23-461): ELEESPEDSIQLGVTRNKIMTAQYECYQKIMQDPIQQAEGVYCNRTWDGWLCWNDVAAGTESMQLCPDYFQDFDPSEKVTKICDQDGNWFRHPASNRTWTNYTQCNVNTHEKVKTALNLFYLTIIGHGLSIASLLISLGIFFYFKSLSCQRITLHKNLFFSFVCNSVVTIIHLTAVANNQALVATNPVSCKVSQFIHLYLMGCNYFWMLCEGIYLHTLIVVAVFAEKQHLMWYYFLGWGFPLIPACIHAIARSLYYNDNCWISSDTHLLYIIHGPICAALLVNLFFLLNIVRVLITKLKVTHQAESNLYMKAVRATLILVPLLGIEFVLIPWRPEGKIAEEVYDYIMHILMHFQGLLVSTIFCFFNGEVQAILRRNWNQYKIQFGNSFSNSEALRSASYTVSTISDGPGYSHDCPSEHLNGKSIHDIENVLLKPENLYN
T1 sequence (O60894 27-148): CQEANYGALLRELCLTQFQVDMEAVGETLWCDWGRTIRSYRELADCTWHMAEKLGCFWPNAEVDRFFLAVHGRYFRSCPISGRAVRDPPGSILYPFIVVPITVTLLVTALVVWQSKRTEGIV

The first assay addresses T1, humanen CGRP-Rezeptor (Homo sapiens, UniProt O60894+Q16602).
T1 construct: SK-N-MC-Zellen werden in "Dulbecco's modified Eagle Medium" kultiviert; endogenous in cells; host or cells: SK-N-MC cells (membrane homogenate)
Briefly: Binding studies with SK-N-MC cells expressing the human CGRP receptor (125I-CGRP displacement on membrane homogenate). To be noted: 50 pM 125I-Iodotyrosyl-CGRP, 180 min at room temperature. As for the experimental part:
A. Bindungsstudien mit (den humanen CGRP-Rezeptor exprimierenden) SK-N-MC-Zellen
SK-N-MC-Zellen werden in "Dulbecco's modified Eagle Medium" kultiviert. Das Medium konfluenter Kulturen wird entfernt. Die Zellen werden zweimal mit PBS-Puffer (Gibco 041-04190 M) gewaschen, durch Zugabe von PBS-Puffer, versetzt mit 0.02% EDTA, abgelöst und durch Zentrifugation isoliert. Nach Resuspension in 20 ml "Balanced Salts Solution" [BSS (in mM): NaCl 120, KCl 5.4, NaHCO3 16.2, MgSO4 0.8, NaHPO4 1.0, CaCl2 1.8, D-Glucose 5.5, HEPES 30, pH 7.40] werden die Zellen zweimal bei 100 x g zentrifugiert und in BSS resuspendiert. Nach Bestimmung der Zellzahl werden die Zellen mit Hilfe eines Ultra-Turrax homogenisiert und für 10 Minuten bei 3000 x g zentrifugiert. Der Überstand wird verworfen und das Pellet in Tris-Puffer (10 mM Tris, 50 mM NaCl, 5 mM MgCl2, 1 mM EDTA, pH 7.40), angereichert mit 1% Rinderserum-Albumin und 0.1% Bacitracin, rezentrifugiert und resuspendiert (1 ml / 1000000 Zellen). Das Homogenat wird bei -80°C eingefroren. Die Membranpräparationen sind bei diesen Bedingungen für mehr als 6 Wochen stabil.
Nach Auftauen wird das Homogenat 1:10 mit Assay-Puffer (50 mM Tris, 150 mM NaCl, 5 mM MgCl2, 1 mM EDTA, pH 7.40) verdünnt und 30 Sekunden lang mit einem Ultra-Turrax homogenisiert. 230 µl des Homogenats werden für 180 Minuten bei Raumtemperatur mit 50 pM ^125I-Iodotyrosyl-Calcitonin-Gene-Related Peptide (Amersham) und ansteigenden Konzentrationen der Testsubstanzen in einem Gesamtvolumen von 250 µl inkubiert. Die Inkubation wird durch rasche Filtration durch mit Polyethylenimin (0.1%) behandelte GF/B-Glasfaserfilter mittels eines Zellharvesters beendet. Die an Protein gebundene Radioaktivität wird mit Hilfe eines Gammacounters bestimmt. Als nichtspezifische Bindung wird die gebundene Radioaktivität nach Gegenwart von 1 µM humanem CGRP-alpha während der Inkubation definiert.
Die Analyse der Konzentrations-Bindungskurven erfolgt mit Hilfe einer computergestützten nichtlinearen Kurvenanpassung.
The molecule `O=C(c1cc(N2CCC(n3c(=O)[nH]c4ncccc43)CC2)ncn1)c1c[nH]c2ccccc12` [(1)] displayed a Ki of 120 nM.

With `COc1ccc2c(c1)CCN(C1CCN(c3cc(C(=O)c4cn(C)c5ccccc45)ncn3)CC1)C(=O)N2` [(4)], the Ki came to 4 nM.

`Cn1cc(C(=O)c2cc(N3CCC(n4c(=O)[nH]c5ccccc54)CC3)ncn2)c2ccccc21` [(9)] displayed an inhibitory constant (Ki) of 251 nM.

`Cn1cc(C(=O)c2cc(N3CCC(n4cc(-c5ccccc5)[nH]c4=O)CC3)ncn2)c2ccccc21` [(14)] came in with a Ki of 6 nM.

For `Cn1cc(C(=O)c2cc(N3CCC(n4c(=O)[nH]c5ncccc54)CC3)ncn2)c2ccc(F)cc21` [(21)], the affinity, expressed as Ki, was 2 nM.

Regarding `O=C(c1cc(N2CCC(n3c(=O)[nH]c4ncccc43)CC2)ncn1)c1cn(CCCN2CCCCC2)c2ccccc12` [(25)], the inhibition constant Ki turned out to be 16 nM.

`CN(C)CCCn1cc(C(=O)c2cc(N3CCC(n4c(=O)[nH]c5ncccc54)CC3)ncn2)c2ccccc21` [(42)] displayed a Ki of 6 nM.

The same assay, now with this note: 50 pM 125I-Iodotyrosyl-CGRP, 180 min at room temperature, read-out: Ki.
Turning to `Cn1cc(C(=O)c2cc(N3CCC(n4c(=O)[nH]c5ncccc54)CC3)ncn2)c2ccccc21` [(2)], the inhibition constant Ki amounted to 5 nM.

Consider `Cc1ccc2c(C(=O)c3cc(N4CCC(n5c(=O)[nH]c6ncccc65)CC4)ncn3)cn(C)c2c1` [(30)], for which the Ki amounted to 25 nM.
